Experimental data as given in US20240381872A1, “SUBSTITUTED 2,3-DIHYDRO[1,3]THIAZOLO[4,5-B]PYRIDINES, SALTS THEREOF AND THEIR USE AS HERBICIDALLY ACTIVE SUBSTANCES” (BAYER AKTIENGESELLSCHAFT, priority 2021, published 2024).

Key:
Assay type in all cases: in vivo
Poa annua (POAAN) = assay: Herbicidal pre-emergence action, section A (Table A7); details: visual grading after ca. 3 weeks vs untreated controls
Summary of the method: (§1)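 Seeds sown in sandy loam and covered with soil; compounds formulated as WP or EC were applied to the soil surface as aqueous suspension or emulsion with 0.5% additive at 600 l water/ha. Pots kept in greenhouse under optimum conditions; damage scored visually after ca. 3 weeks versus untreated controls (0–100%).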

[1] = test system: Alopecurus myosuroides (ALOMY); assay: Herbicidal post-emergence action, section E (Table E2); details: application rate 320 g/ha, assessed visually after ca. 3 weeks; for pest or weed control at 320 g/ha: Alopecurus myosuroides, post-emergence, 504 h, read-out: post-emergence activity against ALOMY in %
Summary of the method: (§2)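 Post-emergence greenhouse spray onto single-leaf-stage plants raised in sandy loam, using WP or EC formulations with 0.5% additive at 600 l water/ha. Effect is the visual percentage damage relative to untreated controls after about 3 weeks.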

Oryza sativa (ORYZA) = assay: Post-emergence effects on crop plants, section F (Table F3)
Summary of the method: (§3)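 Sandy loam, greenhouse, controlled conditions. Spray at single-leaf stage (2–3 wk post-sowing); WP/EC aqueous suspension/emulsion + 0.5% additive, 600 l water/ha; rate ≤320 g/ha. Visual scoring ca. 3 wk post-spray vs untreated, % effect.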

Veronica persica (VERPE) [2] = assay: Herbicidal post-emergence action, section E (Table E9); details: application rate 80 g/ha, visual assessment ca. 3 weeks after spraying; for pest or weed control at 80 g/ha: Veronica persica, 504 h, read-out: post-emergence activity against VERPE in %
Summary of the method: as §2

[3] = test system: Alopecurus myosuroides (ALOMY); assay: Herbicidal pre-emergence action, section C (Table C2); details: visual grading after ca. 3 weeks vs untreated controls
Summary of the method: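 Pre-emergence, sandy loam. WP/EC formulations applied to covering soil surface, aqueous, + 0.5% additive, 600 l water/ha. Greenhouse, optimum growth. Visual % damage vs untreated, ca. 3 wk.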

Zea mays (ZEAMX) = assay: Post-emergence effects on crop plants, section F (Table F1); details: for percent crop plant damage (phytotoxicity) on Zea mays, post-emergence at 320 g/ha: 504 h, application rate 320 g/ha, read-out: post-emergence activity against ZEAMX in %
Summary of the method: as §3

Veronica persica (VERPE) [4] = assay: Herbicidal pre-emergence action, section A (Table A10); details: application rate 1280 g/ha
Summary of the method: as §1

Lolium rigidum (LOLRI) = assay: Herbicidal pre-emergence action, section A (Table A5); details: visual grading after ca. 3 weeks vs untreated controls
Summary of the method: as §1

[5] = test system: Polygonum convolvulus (POLCO); assay: Herbicidal post-emergence action, section E (Table E7); details: visual assessment ca. 3 weeks after spraying
Summary of the method: as §2

Kochia scoparia (KCHSC) = assay: Herbicidal post-emergence action, section B (Table B4); details: application rate 320 g/ha, visual rating about 3 weeks after treatment vs untreated controls
Summary of the method: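 Visual percent control about 3 weeks post-spray, relative to untreated plants. Application was to foliage at the one-leaf stage (2 to 3 weeks after sowing in sandy loam), using WP or EC formulations in water with 0.5% additive at 600 liters per hectare.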

Setaria viridis (SETVI) = assay: Herbicidal pre-emergence action, section A (Table A8)
Summary of the method: as §1

Glycine max (GLXMA) = assay: Post-emergence effects on crop plants, section F (Table F4); details: Glycine max, 504 h, application rate 80 g/ha, read-out: post-emergence activity against GLXMA in %
Summary of the method: as §3

Work on `CCS(=O)(=O)N1CSc2cc(C)c(-c3ccccc3F)nc21` [Example I-060, 3-(ethylsulfonyl)-5-(2-fluorophenyl)-6-methyl-2,3-dihydro[1,3]thiazolo[4,5-b]pyridine] yielded a pest or weed control at 320 g/ha (Poa annua (POAAN); Poa annua, pre-emergence, 504 h, application rate 320 g/ha, read-out: pre-emergence activity against POAAN in %) of 100%, a pest or weed control at 320 g/ha [1] of 90% and a percent crop plant damage at 80 g/ha (Oryza sativa (ORYZA); Oryza sativa, 504 h, application rate 80 g/ha, read-out: post-emergence activity against ORYZA in %) of 0%. For the same compound, the pest or weed control at 80 g/ha (Veronica persica (VERPE) [2]) was 80%, the pest or weed control at 80 g/ha ([3]; Alopecurus myosuroides, pre-emergence, 504 h, application rate 80 g/ha, read-out: pre-emergence activity against ALOMY in %) was 100% and the percent crop plant damage (phytotoxicity) on Zea mays, post-emergence at 320 g/ha (Zea mays (ZEAMX)) was 0%. The pest or weed control at 1280 g/ha (Veronica persica (VERPE) [4]; Veronica persica, 504 h, read-out: pre-emergence activity against VERPE in %) was 90%, the pest or weed control at 1280 g/ha (Lolium rigidum (LOLRI); Lolium rigidum, pre-emergence, 504 h, application rate 1280 g/ha, read-out: pre-emergence activity against LOLRI in %) was 100% and the pest or weed control at 80 g/ha ([5]; Fallopia convolvulus, 504 h, application rate 80 g/ha, read-out: post-emergence activity against POLCO in %) was 90%. For the same compound, the pest or weed control at 320 g/ha (Kochia scoparia (KCHSC); Bassia scoparia, post-emergence, 504 h, read-out: post-emergence activity against KCHSC in %) was 90% and the pest or weed control at 1280 g/ha (Setaria viridis (SETVI); Setaria viridis, 504 h, application rate 1280 g/ha, read-out: pre-emergence activity against SETVI in %) was 100%.
For `Cc1cc2c(nc1-c1ccccc1F)N(C(=O)C1(C)CC(Cl)=NO1)CS2` (centres unmarked) [Example I-083], the “pre-emergence activity against POAAN in %” value (Poa annua (POAAN); application rate 1280 g/ha) was 100%, the “post-emergence activity against ALOMY in %” value [1] was 90% and the “post-emergence activity against ORYZA in %” value (Oryza sativa (ORYZA); crop plant damage, application rate 320 g/ha) was 10%. For the same compound, the “post-emergence activity against VERPE in %” value (Veronica persica (VERPE) [2]) was 90%, the “pre-emergence activity against ALOMY in %” value ([3]; application rate 80 g/ha) was 90% and the “post-emergence activity against ZEAMX in %” value (Zea mays (ZEAMX); crop plant damage, application rate 80 g/ha) was 10%. For the same compound, the “pre-emergence activity against VERPE in %” value (Veronica persica (VERPE) [4]) was 90%, the “pre-emergence activity against LOLRI in %” value (Lolium rigidum (LOLRI); application rate 320 g/ha) was 100% and the “post-emergence activity against POLCO in %” value ([5]; application rate 320 g/ha) was 90%. For the same compound, the “post-emergence activity against KCHSC in %” value (Kochia scoparia (KCHSC)) was 90% and the “pre-emergence activity against SETVI in %” value (Setaria viridis (SETVI); application rate 320 g/ha) was 100%.
Work on `Fc1ccccc1-c1nc2c(cc1Br)SCN2` [Example I-001, 6-bromo-5-(2-fluorophenyl)-2,3-dihydro[1,3]thiazolo[4,5-b]pyridine] yielded a pest or weed control at 320 g/ha [1] of 90%, a percent crop plant damage at 320 g/ha (Oryza sativa (ORYZA); Oryza sativa, 504 h, application rate 320 g/ha, read-out: post-emergence activity against ORYZA in %) of 20% and a pest or weed control at 80 g/ha (Veronica persica (VERPE) [2]) of 80%. It also gave a percent crop plant damage at 80 g/ha (Glycine max (GLXMA)) of 20%, a pest or weed control at 320 g/ha ([3]; Alopecurus myosuroides, pre-emergence, 504 h, application rate 320 g/ha, read-out: pre-emergence activity against ALOMY in %) of 100% and a percent crop plant damage (phytotoxicity) on Zea mays, post-emergence at 320 g/ha (Zea mays (ZEAMX)) of 10%. For the same compound, the pest or weed control at 320 g/ha ([5]; Fallopia convolvulus, 504 h, application rate 320 g/ha, read-out: post-emergence activity against POLCO in %) was 90%.
